One series concerns A549. Put plainly: Selectivity index, Ratio of IC50 for progesterone receptor expressed in human T47 cells to IC50 for glucocorticoid receptor expressed in human A549 cells.
The target in a further series is T1, Progesterone receptor (Homo sapiens, UniProt P06401).
T1 sequence (P06401 whole entry): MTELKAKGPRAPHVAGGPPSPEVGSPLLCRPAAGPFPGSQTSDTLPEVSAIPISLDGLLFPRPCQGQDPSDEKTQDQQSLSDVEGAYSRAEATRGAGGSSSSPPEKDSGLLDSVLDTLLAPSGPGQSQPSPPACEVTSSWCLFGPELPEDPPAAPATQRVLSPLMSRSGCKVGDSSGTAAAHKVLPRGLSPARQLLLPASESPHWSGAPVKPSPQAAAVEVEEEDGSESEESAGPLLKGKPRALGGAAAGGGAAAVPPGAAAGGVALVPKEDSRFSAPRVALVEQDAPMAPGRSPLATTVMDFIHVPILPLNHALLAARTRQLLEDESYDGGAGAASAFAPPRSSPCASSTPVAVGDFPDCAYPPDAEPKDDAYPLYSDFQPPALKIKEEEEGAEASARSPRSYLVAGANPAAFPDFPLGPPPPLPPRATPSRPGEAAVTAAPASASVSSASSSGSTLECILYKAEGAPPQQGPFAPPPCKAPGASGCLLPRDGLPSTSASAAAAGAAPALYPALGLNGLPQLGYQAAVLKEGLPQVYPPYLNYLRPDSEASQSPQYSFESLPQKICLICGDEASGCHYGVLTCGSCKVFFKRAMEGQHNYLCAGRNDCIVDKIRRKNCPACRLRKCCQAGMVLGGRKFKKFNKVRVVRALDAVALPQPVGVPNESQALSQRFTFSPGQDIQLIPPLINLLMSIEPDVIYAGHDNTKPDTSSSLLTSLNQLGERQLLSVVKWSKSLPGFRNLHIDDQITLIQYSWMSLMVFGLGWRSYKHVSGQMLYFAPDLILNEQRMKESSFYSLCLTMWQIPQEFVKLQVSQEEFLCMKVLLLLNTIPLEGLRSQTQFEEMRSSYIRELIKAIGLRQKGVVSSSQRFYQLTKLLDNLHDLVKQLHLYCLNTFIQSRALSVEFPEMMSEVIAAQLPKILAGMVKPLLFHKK
Put plainly: Antagonist activity at progesterone receptor expressed in human T47 cells assessed as blockade of progesterone-induced alkaline phosphatase activity. It counts as functional, cell-based.

For another series, the target named is T2, Glucocorticoid receptor (Homo sapiens, UniProt P04150).
T2 sequence (P04150 whole entry): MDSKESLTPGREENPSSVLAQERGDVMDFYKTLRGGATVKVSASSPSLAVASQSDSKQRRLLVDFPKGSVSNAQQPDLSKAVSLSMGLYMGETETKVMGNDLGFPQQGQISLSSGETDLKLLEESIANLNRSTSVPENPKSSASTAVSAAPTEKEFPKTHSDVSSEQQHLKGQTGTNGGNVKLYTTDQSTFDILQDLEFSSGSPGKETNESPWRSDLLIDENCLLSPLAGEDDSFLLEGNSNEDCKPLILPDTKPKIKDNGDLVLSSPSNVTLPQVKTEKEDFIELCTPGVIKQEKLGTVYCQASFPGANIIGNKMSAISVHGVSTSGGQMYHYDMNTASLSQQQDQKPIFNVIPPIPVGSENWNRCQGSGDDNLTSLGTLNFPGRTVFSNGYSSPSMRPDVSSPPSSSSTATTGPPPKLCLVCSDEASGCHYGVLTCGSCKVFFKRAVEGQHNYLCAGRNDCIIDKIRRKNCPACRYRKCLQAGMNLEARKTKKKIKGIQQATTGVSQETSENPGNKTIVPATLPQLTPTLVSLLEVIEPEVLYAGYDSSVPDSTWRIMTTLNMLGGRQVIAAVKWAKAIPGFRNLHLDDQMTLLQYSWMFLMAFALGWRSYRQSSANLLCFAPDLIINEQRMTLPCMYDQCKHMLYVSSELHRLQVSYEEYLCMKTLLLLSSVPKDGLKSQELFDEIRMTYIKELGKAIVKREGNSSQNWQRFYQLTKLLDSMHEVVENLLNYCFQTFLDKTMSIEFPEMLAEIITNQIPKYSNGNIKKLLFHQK
Put plainly: Antagonist activity at glucocorticoid receptor expressed in human A549 cells assessed as inhibition of corticoid-induced transcription by glucocorticoid response element-linked luciferase reporter gene assay. It counts as functional, cell-based.

A short description of series [1]: Permeability across Caco-2 cells. Format: ADME, cell-based. The following applies: human, read-out: permeability. On the technique in general: Passage across Caco-2 layers is used to estimate intestinal permeability.
Series [2] is described as follows: Cmax in mouse at 10 mg/kg, po. Format: ADME, organism-based. The arrangement: dose 10 mg/kg, route oral. The following applies: in vivo.
Series [3] is described as follows: Tmax in mouse at 2 mg/kg, iv. Format: ADME, organism-based. The arrangement: dose 2 mg/kg, route intravenous. The following applies: in vivo.
Series [4] in a line: Clearance in mouse at 2 mg/kg, iv. Format: ADME, organism-based. The arrangement: dose 2 mg/kg, route intravenous. The following applies: in vivo.
Another series relates to Mus musculus. The experiment in a line: Decrease in plasma glucose level in po dosed ob/ob mouse after 15 days by OGTT. It counts as functional, organism-based.
Series [5] can be described thus: Tmax in mouse at 10 mg/kg, po. It counts as ADME, organism-based. The arrangement: dose 10 mg/kg, route oral. Conditions: in vivo.
Series [6] in a line: Half life in mouse at 10 mg/kg, po. The arrangement: dose 10 mg/kg, route oral. It counts as ADME, organism-based. Conditions: in vivo.
The nature of series [7]: Cmax in mouse at 2 mg/kg, iv. It counts as ADME, organism-based. The arrangement: dose 2 mg/kg, route intravenous. Conditions: in vivo.
Series [8] can be described thus: Oral bioavailability in mouse at 10 mg/kg. Format: ADME, organism-based. The following applies: in vivo.
The nature of series [9]: Half life in mouse at 2 mg/kg, iv. The arrangement: dose 2 mg/kg, route intravenous. Conditions: in vivo. It counts as ADME, organism-based.
Series [10] can be described thus: Metabolic stability in rat microsomes assessed as half life. It counts as ADME, Microsome.
Series [11] is described as follows: Metabolic stability in mouse microsomes assessed as half life. It counts as ADME, Microsome.
The nature of series [12]: Metabolic stability in human microsomes assessed as half life. It counts as ADME, Microsome.
The target in the next series is hERG (KCNH2) (Homo sapiens, UniProt Q12809). The experiment in a line: Inhibition of hERG at 10 uM. Format: toxicity. For orientation: The hERG channel carries a current that helps repolarise heart muscle cells.
Chain of hERG (KCNH2) (Q12809 whole entry): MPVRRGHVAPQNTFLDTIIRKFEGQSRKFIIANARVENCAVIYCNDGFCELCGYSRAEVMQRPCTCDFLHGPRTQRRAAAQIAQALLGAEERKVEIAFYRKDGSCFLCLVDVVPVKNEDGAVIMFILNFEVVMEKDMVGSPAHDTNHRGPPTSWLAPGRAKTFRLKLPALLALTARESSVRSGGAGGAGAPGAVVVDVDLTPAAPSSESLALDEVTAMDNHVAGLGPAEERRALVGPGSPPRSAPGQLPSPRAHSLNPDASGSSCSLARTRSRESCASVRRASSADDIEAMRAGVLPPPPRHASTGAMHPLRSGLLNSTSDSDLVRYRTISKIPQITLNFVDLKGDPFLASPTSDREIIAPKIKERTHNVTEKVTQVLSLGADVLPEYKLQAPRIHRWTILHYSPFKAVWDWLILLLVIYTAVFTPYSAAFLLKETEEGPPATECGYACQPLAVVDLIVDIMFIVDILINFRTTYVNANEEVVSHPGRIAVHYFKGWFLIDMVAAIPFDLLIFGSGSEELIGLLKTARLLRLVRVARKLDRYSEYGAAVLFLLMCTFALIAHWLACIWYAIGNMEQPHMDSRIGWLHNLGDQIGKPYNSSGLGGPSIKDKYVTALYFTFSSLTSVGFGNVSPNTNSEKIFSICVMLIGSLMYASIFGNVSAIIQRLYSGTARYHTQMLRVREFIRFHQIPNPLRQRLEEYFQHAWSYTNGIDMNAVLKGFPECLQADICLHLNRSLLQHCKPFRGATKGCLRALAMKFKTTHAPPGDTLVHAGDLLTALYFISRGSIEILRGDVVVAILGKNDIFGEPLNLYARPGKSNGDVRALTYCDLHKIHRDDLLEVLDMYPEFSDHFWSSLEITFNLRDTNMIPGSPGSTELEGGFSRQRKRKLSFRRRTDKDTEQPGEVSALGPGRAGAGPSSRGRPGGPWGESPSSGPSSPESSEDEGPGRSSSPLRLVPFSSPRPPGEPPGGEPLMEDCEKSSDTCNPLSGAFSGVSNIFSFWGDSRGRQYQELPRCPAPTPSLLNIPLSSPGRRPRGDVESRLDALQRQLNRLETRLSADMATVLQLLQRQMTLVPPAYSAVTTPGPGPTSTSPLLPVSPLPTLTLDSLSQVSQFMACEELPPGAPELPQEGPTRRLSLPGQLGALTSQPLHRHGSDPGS
Series [13] in a line: Metabolic stability in rabbit microsomes assessed as half life. Format: ADME, Oryctolagus cuniculus, Microsome.
Series [14] in a line: Metabolic stability in dog microsomes assessed as half life. Format: ADME, Canis lupus familiaris, Microsome.
Series [15] is described as follows: Metabolic stability in monkey microsomes assessed as half life. Format: ADME, Macaca mulatta, Microsome. Conditions: rhesus monkey.

The structures appear in SMILES notation. Active and inactive are the calls of the source. No cut-off for these calls is given here. Some results are limits rather than exact numbers.

The term IC50 denotes the point on the concentration scale where inhibition reaches its midpoint. In general, Ki refers to a dissociation constant, usually derived from enzyme kinetics or from competition with a known ligand. The Cmax is the highest concentration seen after dosing. The term Tmax denotes the time from dosing to the highest level. Usually clearance stands for the rate of elimination divided by the concentration. Usually half-life stands for how long it takes for the measured level to halve. The bioavailability is the share of a dose that reaches the circulation, judged against a reference dose that is usually intravenous. What is called inhibition is how much of the control response was suppressed.

`CC#C[C@]1(O)CC[C@H]2[C@@H]3CCC4=CC(=O)CCC4=C3[C@@H](c3ccc(P(=O)(c4ccccc4)c4ccccc4)cc3)C[C@@]21C`: in the series with A549, the Ratio came to 127. Also, the IC50 on Progesterone receptor worked out at 381 nM. For the same compound, at Glucocorticoid receptor, the Ki was 3 nM.
As to `C=C1CCO[C@]12CC[C@H]1[C@@H]3CCC4=CC(=O)CCC4=C3[C@@H](c3ccc(P(C)(=O)O)cc3)C[C@@]12C`, the IC50 at Progesterone receptor is more than 1000 nM. In addition, the Ki on Glucocorticoid receptor is more than 3000 nM.
On to `C=CC[C@]1(O)CC[C@H]2[C@@H]3CCC4=CC(=O)CCC4=C3[C@@H](c3ccc(P(=O)(OCC)OCC)cc3)C[C@@]21C`, for which the Ratio in the series on A549 worked out at 30.8. Further, the IC50 at Progesterone receptor came out at 308 nM. In addition, the Papp in series [1] came out at 14.5 ×10⁻⁶ cm/s. Further, the Ki at Glucocorticoid receptor came out at 10 nM.
`C[C@]12C[C@H](c3ccc(P(=O)(c4ccccc4)c4ccccc4)cc3)C3=C4CCC(=O)C=C4CC[C@H]3[C@@H]1CC[C@@]2(O)c1ccccc1`: the Ratio in the series with A549 was found to be 13.8. The IC50 on Progesterone receptor was 275 nM. For the same compound, the Ki on Glucocorticoid receptor amounted to 20 nM.
Regarding `CC#C[C@]1(O)CC[C@H]2[C@@H]3CCC4=CC(=O)CCC4=C3[C@@H](c3ccc(N(C)C)cc3)C[C@@]21C` [MIFEPRISTONE], the Cmax in [2] was found to be 30 ng/mL; in [7], 2800 ng/mL. Further, the Tmax in series [3] was 4.8 min; in series [5], 60 min. Further, the clearance in series [4] worked out at 115 mL/min/kg. Besides, the outcome with Mus musculus was Active. The figures for the half-life in series [6] and in [9] were 168 min and 240 min, respectively. Moreover, the bioavailability in [8] was 31%.
Consider `C=C1CCO[C@]12CC[C@H]1[C@@H]3CCC4=CC(=O)CCC4=C3[C@@H](c3ccc(P(=O)(O)OCC)cc3)C[C@@]12C`, for which the IC50 on Progesterone receptor was more than 1000 nM. Besides, the Ki at Glucocorticoid receptor is more than 3000 nM.
Take `C=C1CCO[C@]12CC[C@H]1[C@@H]3CCC4=CC(=O)CCC4=C3[C@@H](c3ccc(P(=O)(OCC)OCC)cc3)C[C@@]12C`: in the series with A549, the Ratio worked out at 0.17. Also, the IC50 at Progesterone receptor worked out at 9.9 nM. For the same compound, the Ki on Glucocorticoid receptor was 56.3 nM.
For the compound `C=CC[C@]1(O)CC[C@H]2[C@@H]3CCC4=CC(=O)CCC4=C3[C@@H](c3ccc(P(=O)(c4ccccc4)c4ccccc4)cc3)C[C@@]21C`, the Cmax came to 1850 ng/mL in series [2] and 5290 ng/mL in series [7]. Moreover, the Tmax is 4.8 min in series [3] and 120 min in [5]. In addition, the clearance in series [4] was 7.98 mL/min/kg. The half-life was more than 30 min in series [10]; 28 min in [11]; more than 30 min in [12]; 30 min in [13]; 132 min in [6]; 21 min in series [14]. For the same compound, the half-life is 46.2 min in series [9] and 8 min in [15]. The outcome in the series on Mus musculus was Active. Moreover, the Ratio with A549 was found to be 76.3. On Progesterone receptor, the IC50 came to 763 nM. At hERG (KCNH2), the inhibition at 10 µM is 27.8%. Moreover, the bioavailability in series [8] came out at 59%. In series [1], the Papp turned out to be 2.6 ×10⁻⁶ cm/s. The Ki at Glucocorticoid receptor was determined as 10 nM.
With `C=C1CCO[C@]12CC[C@H]1[C@@H]3CCC4=CC(=O)CCC4=C3[C@@H](c3ccc(P(C)(=O)OCC)cc3)C[C@@]12C` (stereo not given in full), the Ratio with A549 is 0.027. Further, the IC50 at Progesterone receptor came out at 1.6 nM. The Ki on Glucocorticoid receptor is 59.8 nM.
Consider `CC#C[C@]1(O)CC[C@H]2[C@@H]3CCC4=CC(=O)CCC4=C3[C@@H](c3ccc(P(=O)(OCC)OCC)cc3)C[C@@]21C`, for which the Ratio with A549 worked out at 15.7. In addition, the IC50 on Progesterone receptor was 141 nM. The Ki at Glucocorticoid receptor was 9 nM.
Regarding `CC#C[C@]1(O)CC[C@H]2[C@@H]3CCC4=CC(=O)CCC4=C3[C@@H](c3ccc(P(C)(C)=O)cc3)C[C@@]21C`, the Ratio in the series with A549 turned out to be 10.1. Further, the IC50 on Progesterone receptor was 101 nM; on Glucocorticoid receptor, 10 nM.

Source of the values: ChEMBL document CHEMBL1139120, “Discovery of novel phosphorus-containing steroids as selective glucocorticoid receptor antagonist” (Bioorg Med Chem Lett, 2007).
